Measured values: patent US11352394B2, “Cyclic cell penetrating peptides comprising beta-hairpin motifs and methods of making and using thereof” (Ohio State Innovation Foundation, priority 2016, dated 2022)
Square brackets hold non-standard residues; d marks the D form. Phe(4-F) = N[C@@H](Cc1ccc(F)cc1)C(=O)O; 2Nal = N[C@@H](Cc1ccc2ccccc2c1)C(=O)O

Test system: HeLa cells
Assay: Cellular (cytosolic) uptake of NF-labeled peptides by flow cytometry (MFI)
Assay type: cell-based
Details: relative to CPP 1 (100%); mean ± S.D. of three independent experiments
Procedure: HeLa cells were treated with 5 μM peptide for 2 h, and their cell uptake efficiencies were determined by flow cytometry analysis. The mean fluorescence intensity (MFI) values derived from cytometry analyses reflect the amounts of peptides inside the cytosol and nucleus, whereas any NF-labeled peptide entrapped inside the acidic endosomes are invisible under the experimental conditions (Id.; Qian, Z et al. Chem. Commun. 2015, 51, 2162-2165).
The binding affinity of BH23 (unlabeled) for the Grb2 SH2 domain was then determined by examining its ability to compete with the FAM-labeled ligand for binding to the Grb2 SH2 domain by fluorescence polarization (FP). […] Next, BH23 was labeled with NF at the Asn side chain through a miniPEG-Lys linker and its cytosolic entry efficiency was quantitated by treating HeLa cells with 5 μM of the labeled peptide for 2 h before flow cytometry analysis. […] BH23 was also similarly labeled at the Asn side chain with FAM and its entry into HeLa cells was examined by live-cell confocal microscopy. […] Two control peptides (BH24 and BH25) were also prepared for cellular assays. BH24 and BH25 are structurally similar to BH23, except that BH24 contained a Tyr instead of the pY residue (FIG. 11), whereas in BH25 the two hydrophobic residues critical for cellular uptake (Nal-arg) were replaced with Ala-ala (FIG. 12).
BHT1 and BHT2 were labeled with naphthofluorescein (NF) and their cytosolic uptake into HeLa cells was determined by flow cytometry (Table 10).
Additional cell penetrating compounds were prepared and tested for cytosolic delivery. In these compounds there was no beta-hairpin turn creating moiety.

Going from “131 (cyclo(F[2Nal]RRRRQ); SMILES N=C(N)NCCC[C@@H]1NC(=O)[C@H](CCCNC(=N)N)NC(=O)[C@H](CCCNC(=N)N)NC(=O)[C@H](Cc2ccc3ccccc3c2)NC(=O)[C@H](Cc2ccccc2)NC(=O)[C@H](CCC(N)=O)NC(=O)[C@H](CCCNC(=N)N)NC1=O) [Peptide 131]” to 234 (FFRRRQ; cyclic) [Peptide 234], the “Cellular Uptake (MFI^NF, %), cytosolic delivery efficiency of CPPs without beta-hairpin moiety” value falls from 100 ± 6% to 65%.

Going from “235 (cyclo(FF[dR]R[dR]Q); SMILES N=C(N)NCCC[C@@H]1NC(=O)[C@@H](CCCNC(=N)N)NC(=O)[C@H](Cc2ccccc2)NC(=O)[C@H](Cc2ccccc2)NC(=O)[C@H](CCC(N)=O)NC(=O)[C@@H](CCCNC(=N)N)NC1=O) [Peptide 235]” to “236 (cyclo(FFR[dR]RQ); SMILES N=C(N)NCCC[C@@H]1NC(=O)[C@H](Cc2ccccc2)NC(=O)[C@H](Cc2ccccc2)NC(=O)[C@H](CCC(N)=O)NC(=O)[C@H](CCCNC(=N)N)NC(=O)[C@@H](CCCNC(=N)N)NC1=O) [Peptide 236]”, the “Cellular Uptake (MFI^NF, %), cytosolic delivery efficiency of CPPs without beta-hairpin moiety” value falls from 122% to 40%.

Going from 237 (FRFRRQ; cyclic) [Peptide 237] to 238 (FRRFRQ; cyclic) [Peptide 238], the “Cellular Uptake (MFI^NF, %), cytosolic delivery efficiency of CPPs without beta-hairpin moiety” value rises from 15 ± 3% to 38 ± 10%.

Compared with 239 (FRRRFQ; cyclic) [Peptide 239], “240 (cyclo(G[2Nal]RRRQ); SMILES N=C(N)NCCC[C@@H]1NC(=O)[C@H](Cc2ccc3ccccc3c2)NC(=O)CNC(=O)[C@H](CCC(N)=O)NC(=O)[C@H](CCCNC(=N)N)NC(=O)[C@H](CCCNC(=N)N)NC1=O) [Peptide 240]” is higher in “Cellular Uptake (MFI^NF, %), cytosolic delivery efficiency of CPPs without beta-hairpin moiety” value: 25 ± 4% for the first, 49 ± 5% for the second.

Going from 241 (FFFRAQ; cyclic) [Peptide 241] to 242 (FFFRRQ; cyclic) [Peptide 242], the “Cellular Uptake (MFI^NF, %), cytosolic delivery efficiency of CPPs without beta-hairpin moiety” value rises from 52 ± 2% to 125 ± 25%.

First: 243 (FFRRRRQ; cyclic) [Peptide 243]
Second: 244 (FRRFRRQ; cyclic) [Peptide 244]
The “Cellular Uptake (MFI^NF, %), cytosolic delivery efficiency of CPPs without beta-hairpin moiety” value of the first is higher: 89 ± 27% for the first, 31 ± 3% for the second.

Compared with 245 (FRRRFRQ; cyclic) [Peptide 245], 246 (RFFRRRQ; cyclic) [Peptide 246] is higher in “Cellular Uptake (MFI^NF, %), cytosolic delivery efficiency of CPPs without beta-hairpin moiety” value: 20 ± 3% for the first, 63 ± 19% for the second.

247 (RFRRFRQ; cyclic) [Peptide 247] and 248 (FRFRRRQ; cyclic) [Peptide 248] are within error of each other in “Cellular Uptake (MFI^NF, %), cytosolic delivery efficiency of CPPs without beta-hairpin moiety” value: 94 ± 9% for the first, 132 ± 57% for the second.

Going from 249 (FFFRRRQ; cyclic) [Peptide 249] to 250 (FFRRRFQ; cyclic) [Peptide 250], the “Cellular Uptake (MFI^NF, %), cytosolic delivery efficiency of CPPs without beta-hairpin moiety” value falls from 231 ± 43% to 158 ± 21%.

Going from 252 (RRFFFRQ; cyclic) [Peptide 252] to 253 (FFRFRRQ; cyclic) [Peptide 253], the “Cellular Uptake (MFI^NF, %), cytosolic delivery efficiency of CPPs without beta-hairpin moiety” value falls from 172 ± 24% to 106 ± 22%.

254 (FFRRFRQ; cyclic) [Peptide 254] and 255 (FRRFFRQ; cyclic) [Peptide 255] are within error of each other in “Cellular Uptake (MFI^NF, %), cytosolic delivery efficiency of CPPs without beta-hairpin moiety” value: 86 ± 12% for the first, 109 ± 11% for the second.

256 (FRRFRFQ; cyclic) [Peptide 256] and 257 (FRFRFRQ; cyclic) [Peptide 257] are within error of each other in “Cellular Uptake (MFI^NF, %), cytosolic delivery efficiency of CPPs without beta-hairpin moiety” value: 101 ± 16% for the first, 105 ± 14% for the second.

Compared with 258 (RFFRFRQ; cyclic) [Peptide 258], “259 (cyclo(G[2Nal]RRRRQ); SMILES N=C(N)NCCC[C@@H]1NC(=O)[C@H](Cc2ccc3ccccc3c2)NC(=O)CNC(=O)[C@H](CCC(N)=O)NC(=O)[C@H](CCCNC(=N)N)NC(=O)[C@H](CCCNC(=N)N)NC(=O)[C@H](CCCNC(=N)N)NC1=O) [Peptide 259]” is lower in “Cellular Uptake (MFI^NF, %), cytosolic delivery efficiency of CPPs without beta-hairpin moiety” value: 96 ± 31% for the first, 55 ± 5% for the second.

260 (FFFRRRRQ; cyclic) [Peptide 260] and 261 (RFFRRRRQ; cyclic) [Peptide 261] are within error of each other in “Cellular Uptake (MFI^NF, %), cytosolic delivery efficiency of CPPs without beta-hairpin moiety” value: 122 ± 20% for the first, 104 ± 5% for the second.

Going from 262 (RRFFRRRQ; cyclic) [Peptide 262] to 263 (RFFFRRRQ; cyclic) [Peptide 263], the “Cellular Uptake (MFI^NF, %), cytosolic delivery efficiency of CPPs without beta-hairpin moiety” value rises from 115 ± 20% to 167 ± 10%.

First: 264 (RRFFFRRQ; cyclic) [Peptide 264]
Second: 265 (FFRRFRRQ; cyclic) [Peptide 265]
The “Cellular Uptake (MFI^NF, %), cytosolic delivery efficiency of CPPs without beta-hairpin moiety” value of the first is higher: 112 ± 20% for the first, 46 ± 2% for the second.

266 (FFRRRRFQ; cyclic) [Peptide 266] and 267 (FRRFFRRQ; cyclic) [Peptide 267] are within error of each other in “Cellular Uptake (MFI^NF, %), cytosolic delivery efficiency of CPPs without beta-hairpin moiety” value: 162 ± 16% for the first, 127 ± 22% for the second.

268 (FFFRRRRRQ; cyclic) [Peptide 268] and 269 (FFFRRRRRRQ; cyclic) [Peptide 269] are within error of each other in “Cellular Uptake (MFI^NF, %), cytosolic delivery efficiency of CPPs without beta-hairpin moiety” value: 145 ± 27% for the first, 141 ± 10% for the second.

“270 (cyclo(F[2Nal]R[dR]R[dR]Q)) [Peptide 270]” and “271 (cyclo([Phe(4-F)][Phe(4-F)]RRRRQ); SMILES N=C(N)NCCC[C@@H]1NC(=O)[C@H](CCCNC(=N)N)NC(=O)[C@H](CCCNC(=N)N)NC(=O)[C@H](Cc2ccc(F)cc2)NC(=O)[C@H](Cc2ccc(F)cc2)NC(=O)[C@H](CCC(N)=O)NC(=O)[C@H](CCCNC(=N)N)NC1=O) [Peptide 271]” are within error of each other in “Cellular Uptake (MFI^NF, %), cytosolic delivery efficiency of CPPs without beta-hairpin moiety” value: 212 ± 42% for the first, 165 ± 22% for the second.

Going from “272 (cyclo(F[dF]FR[dR]RQ); SMILES N=C(N)NCCC[C@@H]1NC(=O)[C@H](Cc2ccccc2)NC(=O)[C@@H](Cc2ccccc2)NC(=O)[C@H](Cc2ccccc2)NC(=O)[C@H](CCC(N)=O)NC(=O)[C@H](CCCNC(=N)N)NC(=O)[C@@H](CCCNC(=N)N)NC1=O) [Peptide 272]” to “273 (cyclo([dF]F[dF][dR]R[dR]Q); SMILES N=C(N)NCCC[C@@H]1NC(=O)[C@@H](CCCNC(=N)N)NC(=O)[C@@H](Cc2ccccc2)NC(=O)[C@H](Cc2ccccc2)NC(=O)[C@@H](Cc2ccccc2)NC(=O)[C@H](CCC(N)=O)NC(=O)[C@@H](CCCNC(=N)N)NC1=O) [Peptide 273]”, the “Cellular Uptake (MFI^NF, %), cytosolic delivery efficiency of CPPs without beta-hairpin moiety” value rises from 230 ± 18% to 463 ± 94%.

“274 (cyclo([dF]F[dF]R[dR]RQ); SMILES N=C(N)NCCC[C@@H]1NC(=O)[C@@H](CCCNC(=N)N)NC(=O)[C@H](CCCNC(=N)N)NC(=O)[C@@H](Cc2ccccc2)NC(=O)[C@H](Cc2ccccc2)NC(=O)[C@@H](Cc2ccccc2)NC(=O)[C@H](CCC(N)=O)NC1=O) [Peptide 274]” was tested, and the “Cellular Uptake (MFI^NF, %), cytosolic delivery efficiency of CPPs without beta-hairpin moiety” value was 359 ± 66%.
